{"source": "ChEMBL document CHEMBL5715949", "about": "“Discovery of a selective irreversible BMX inhibitor for prostate cancer” (ACS Chem Biol, 2013)", "key": {"[1]": {"biological_target": "Fibroblast growth factor receptor 2 (Homo sapiens) (UniProt P21802)", "assay": "Inhibition of FGFR2 (unknown origin) assessed as remaining activity at 1 uM by Kinome scan method relative to control"}, "[2]": {"biological_target": "Inhibitor of nuclear factor kappa-B kinase subunit beta (Homo sapiens) (UniProt O14920)", "assay": "Inhibition of IKK-beta (unknown origin) assessed as remaining activity at 1 uM by Kinome scan method relative to control"}, "[3]": {"biological_target": "Mitogen-activated protein kinase 14 (Homo sapiens) (UniProt Q16539)", "sequence (Q16539 whole entry)": "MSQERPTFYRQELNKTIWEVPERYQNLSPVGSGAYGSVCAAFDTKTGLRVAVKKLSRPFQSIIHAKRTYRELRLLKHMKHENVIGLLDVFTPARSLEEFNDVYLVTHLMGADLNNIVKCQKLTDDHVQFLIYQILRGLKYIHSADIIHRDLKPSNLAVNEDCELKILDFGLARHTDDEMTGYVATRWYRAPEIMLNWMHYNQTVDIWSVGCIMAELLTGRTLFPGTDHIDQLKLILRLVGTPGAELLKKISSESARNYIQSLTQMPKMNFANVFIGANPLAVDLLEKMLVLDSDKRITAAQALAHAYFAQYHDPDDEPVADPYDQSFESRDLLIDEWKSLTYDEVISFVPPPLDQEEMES", "assay": "Inhibition of P38alpha (unknown origin) assessed as remaining activity at 1 uM by Kinome scan method relative to control"}, "[4]": {"biological_target": "Megakaryocyte-associated tyrosine-protein kinase (Homo sapiens) (UniProt P42679)", "assay": "Inhibition of CTK (unknown origin) assessed as remaining activity at 1 uM by Kinome scan method relative to control"}, "[5]": {"biological_target": "Myotonin-protein kinase (Homo sapiens) (UniProt Q09013)", "assay": "Inhibition of DMPK (unknown origin) assessed as remaining activity at 1 uM by Kinome scan method relative to control"}, "[6]": {"biological_target": "Serine/threonine-protein kinase tousled-like 1 (Homo sapiens) (UniProt Q9UKI8)", "sequence (Q9UKI8 whole entry)": "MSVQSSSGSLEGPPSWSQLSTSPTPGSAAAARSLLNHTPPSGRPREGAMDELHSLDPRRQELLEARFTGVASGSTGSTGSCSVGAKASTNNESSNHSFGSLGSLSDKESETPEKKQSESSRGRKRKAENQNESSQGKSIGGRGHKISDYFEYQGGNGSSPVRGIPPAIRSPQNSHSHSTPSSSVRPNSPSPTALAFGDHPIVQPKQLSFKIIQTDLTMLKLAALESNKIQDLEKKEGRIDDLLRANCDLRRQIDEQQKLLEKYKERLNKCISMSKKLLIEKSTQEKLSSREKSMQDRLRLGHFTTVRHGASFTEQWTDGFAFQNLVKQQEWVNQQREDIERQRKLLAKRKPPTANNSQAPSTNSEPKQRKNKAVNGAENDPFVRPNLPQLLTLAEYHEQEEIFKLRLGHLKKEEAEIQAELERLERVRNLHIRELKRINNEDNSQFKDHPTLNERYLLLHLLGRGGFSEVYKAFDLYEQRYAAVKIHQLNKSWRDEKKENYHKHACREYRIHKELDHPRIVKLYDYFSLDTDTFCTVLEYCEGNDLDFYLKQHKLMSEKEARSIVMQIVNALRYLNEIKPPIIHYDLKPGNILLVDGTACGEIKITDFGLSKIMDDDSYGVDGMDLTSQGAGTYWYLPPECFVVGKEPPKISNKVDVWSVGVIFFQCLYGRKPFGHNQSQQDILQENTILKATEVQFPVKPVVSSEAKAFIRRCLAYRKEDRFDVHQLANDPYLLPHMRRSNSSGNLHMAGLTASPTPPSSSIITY", "assay": "Inhibition of TLK1 (unknown origin) assessed as remaining activity at 1 uM by Kinome scan method relative to control"}, "[7]": {"assay": "Inhibition of PI3K/AKT/mTOR signalling pathway in human RV-1 cells assessed as decrease in AKT phosphorylation at T308 residue at 2.5 uM incubated for 4 hrs by immunoblot analysis", "format": "cell-based"}, "[8]": {"biological_target": "Calcium/calmodulin-dependent protein kinase type II subunit alpha (Homo sapiens) (UniProt Q9UQM7)", "assay": "Inhibition of CAMK2A (unknown origin) assessed as remaining activity at 1 uM by Kinome scan method relative to control"}, "[9]": {"tested_on": "Mast/stem cell growth factor receptor Kit (Homo sapiens), P10721 [D816V]", "assay": "Inhibition of KIT D816V mutant (unknown origin) assessed as remaining activity at 1 uM by Kinome scan method relative to control"}, "[10]": {"biological_target": "Non-receptor tyrosine-protein kinase TYK2 (Homo sapiens) (UniProt P29597)", "assay": "Inhibition of TYK2 JH1 domain (unknown origin) assessed as remaining activity at 1 uM by Kinome scan method relative to control"}, "[11]": {"tested_on": "Receptor-type tyrosine-protein kinase FLT3 (Homo sapiens), P36888 [N841I]", "assay": "Inhibition of FLT3 N841I mutant (unknown origin) assessed as remaining activity at 1 uM by Kinome scan method relative to control"}, "[12]": {"biological_target": "Casein kinase II subunit alpha (Homo sapiens) (UniProt P68400)", "sequence (P68400 whole entry, looked up)": "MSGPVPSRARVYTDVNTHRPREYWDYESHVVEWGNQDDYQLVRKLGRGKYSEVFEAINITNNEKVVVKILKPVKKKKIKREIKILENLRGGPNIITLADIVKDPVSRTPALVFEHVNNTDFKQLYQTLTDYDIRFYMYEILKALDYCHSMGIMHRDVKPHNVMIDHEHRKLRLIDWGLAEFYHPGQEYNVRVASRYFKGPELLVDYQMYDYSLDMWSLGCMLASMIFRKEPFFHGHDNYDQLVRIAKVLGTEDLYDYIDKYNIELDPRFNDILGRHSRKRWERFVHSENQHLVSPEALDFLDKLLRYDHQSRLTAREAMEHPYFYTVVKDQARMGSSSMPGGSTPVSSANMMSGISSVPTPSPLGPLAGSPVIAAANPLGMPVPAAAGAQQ", "assay": "Inhibition of CSNK2A1 (unknown origin) assessed as remaining activity at 1 uM by Kinome scan method relative to control"}, "[13]": {"biological_target": "Phosphatidylinositol 4,5-bisphosphate 3-kinase catalytic subunit beta isoform (Homo sapiens) (UniProt P42338)", "sequence (P42338 whole entry, looked up, canonical isoform)": "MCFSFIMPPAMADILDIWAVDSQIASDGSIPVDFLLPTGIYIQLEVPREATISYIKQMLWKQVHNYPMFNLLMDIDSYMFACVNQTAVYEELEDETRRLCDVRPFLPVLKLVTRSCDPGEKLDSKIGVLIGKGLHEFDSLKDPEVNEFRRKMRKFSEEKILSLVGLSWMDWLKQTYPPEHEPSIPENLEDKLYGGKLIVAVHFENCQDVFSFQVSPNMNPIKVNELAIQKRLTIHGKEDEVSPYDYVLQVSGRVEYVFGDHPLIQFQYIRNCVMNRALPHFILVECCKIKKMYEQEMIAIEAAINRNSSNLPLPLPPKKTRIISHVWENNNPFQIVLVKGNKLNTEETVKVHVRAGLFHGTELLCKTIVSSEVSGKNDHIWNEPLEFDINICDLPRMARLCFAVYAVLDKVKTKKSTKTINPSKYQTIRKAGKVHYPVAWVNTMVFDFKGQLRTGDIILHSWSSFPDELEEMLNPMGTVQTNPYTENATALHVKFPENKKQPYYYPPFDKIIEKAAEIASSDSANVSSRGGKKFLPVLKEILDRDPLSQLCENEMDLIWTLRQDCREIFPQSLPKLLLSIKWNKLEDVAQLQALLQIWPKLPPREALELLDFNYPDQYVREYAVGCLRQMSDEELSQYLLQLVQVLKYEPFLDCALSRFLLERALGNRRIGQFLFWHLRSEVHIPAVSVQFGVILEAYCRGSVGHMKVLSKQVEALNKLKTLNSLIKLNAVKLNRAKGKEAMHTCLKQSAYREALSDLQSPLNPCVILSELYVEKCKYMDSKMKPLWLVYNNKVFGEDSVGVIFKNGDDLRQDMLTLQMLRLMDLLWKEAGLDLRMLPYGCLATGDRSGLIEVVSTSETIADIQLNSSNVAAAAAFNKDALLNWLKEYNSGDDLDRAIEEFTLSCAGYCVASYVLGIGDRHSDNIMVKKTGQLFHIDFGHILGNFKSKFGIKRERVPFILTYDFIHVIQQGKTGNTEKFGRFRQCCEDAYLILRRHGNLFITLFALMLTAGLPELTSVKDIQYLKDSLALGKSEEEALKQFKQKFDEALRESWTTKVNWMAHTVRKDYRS", "assay": "Inhibition of PIK3CB (unknown origin) assessed as remaining activity at 1 uM by Kinome scan method relative to control"}, "BaF3 [14]": {"tested_on": "BaF3", "assay": "Antiproliferative activity against mouse BaF3 cells expressing TEL-fused BMX Cys496Ser assessed growth inhibition incubated for 2 to 5 days by CellTiter-Glo assay", "format": "functional, cell-based"}, "[15]": {"tested_on": "Mast/stem cell growth factor receptor Kit (Homo sapiens), P10721 [V559D]", "assay": "Inhibition of KIT V559D mutant (unknown origin) assessed as remaining activity at 1 uM by Kinome scan method relative to control"}, "BaF3 [16]": {"tested_on": "BaF3", "assay": "Antiproliferative activity against mouse BaF3 cells expressing TEL-fused BMX assessed growth inhibition incubated for 2 to 5 days by CellTiter-Glo assay", "format": "functional, cell-based"}, "[17]": {"biological_target": "Tyrosine-protein kinase Fes/Fps (Homo sapiens) (UniProt P07332)", "assay": "Inhibition of FES (unknown origin) assessed as remaining activity at 1 uM by Kinome scan method relative to control"}, "[18]": {"assay": "Inhibition of PI3K/AKT/mTOR signalling pathway in human RV-1 cells assessed as decrease in GSKalpha/beta phosphorylation at 2.5 uM incubated for 4 hrs by immunoblot analysis", "format": "cell-based"}, "[19]": {"biological_target": "Ribosomal protein S6 kinase alpha-6 (Homo sapiens) (UniProt Q9UK32)", "assay": "Inhibition of C-terminal kinase domain RSK4 (unknown origin) assessed as remaining activity at 1 uM by Kinome scan method relative to control"}, "[20]": {"biological_target": "AP2-associated protein kinase 1 (Homo sapiens) (UniProt Q2M2I8)", "sequence (Q2M2I8 whole entry, looked up)": "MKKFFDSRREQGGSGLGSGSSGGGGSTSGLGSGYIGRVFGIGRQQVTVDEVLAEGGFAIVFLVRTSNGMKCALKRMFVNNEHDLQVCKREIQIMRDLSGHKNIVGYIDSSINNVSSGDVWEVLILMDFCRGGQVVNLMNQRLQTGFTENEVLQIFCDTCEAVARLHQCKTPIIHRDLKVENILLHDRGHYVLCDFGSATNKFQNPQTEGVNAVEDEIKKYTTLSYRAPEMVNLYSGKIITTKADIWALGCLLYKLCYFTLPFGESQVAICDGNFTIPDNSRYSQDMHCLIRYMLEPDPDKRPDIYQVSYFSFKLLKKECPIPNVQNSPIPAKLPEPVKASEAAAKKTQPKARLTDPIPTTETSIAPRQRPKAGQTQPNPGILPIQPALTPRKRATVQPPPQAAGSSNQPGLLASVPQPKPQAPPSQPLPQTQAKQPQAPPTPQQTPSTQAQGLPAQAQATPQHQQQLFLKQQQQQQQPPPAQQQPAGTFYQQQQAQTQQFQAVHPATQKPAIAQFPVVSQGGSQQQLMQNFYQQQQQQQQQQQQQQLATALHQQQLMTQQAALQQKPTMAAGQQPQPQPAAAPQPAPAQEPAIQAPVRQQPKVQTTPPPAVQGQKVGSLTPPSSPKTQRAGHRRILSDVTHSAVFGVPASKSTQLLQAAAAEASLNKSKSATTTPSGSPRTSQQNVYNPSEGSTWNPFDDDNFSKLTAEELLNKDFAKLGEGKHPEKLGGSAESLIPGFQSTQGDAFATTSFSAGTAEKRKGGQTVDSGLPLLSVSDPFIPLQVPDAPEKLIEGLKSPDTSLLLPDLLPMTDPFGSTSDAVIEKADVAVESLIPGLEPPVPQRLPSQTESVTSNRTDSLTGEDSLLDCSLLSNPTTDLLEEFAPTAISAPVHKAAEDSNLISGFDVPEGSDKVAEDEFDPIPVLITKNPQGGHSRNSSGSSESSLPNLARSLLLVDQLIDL", "assay": "Inhibition of AAK1 (unknown origin) assessed as remaining activity at 1 uM by Kinome scan method relative to control"}, "[21]": {"biological_target": "Ephrin type-A receptor 1 (Homo sapiens) (UniProt P21709)", "assay": "Inhibition of EPHA1 (unknown origin) assessed as remaining activity at 1 uM by Kinome scan method relative to control"}, "[22]": {"biological_target": "Serine/threonine-protein kinase 4 (Homo sapiens) (UniProt Q13043)", "assay": "Inhibition of MST1 (unknown origin) assessed as remaining activity at 1 uM by Kinome scan method relative to control"}, "[23]": {"tested_on": "Mast/stem cell growth factor receptor Kit (Homo sapiens), P10721 [D816H]", "assay": "Inhibition of KIT D816H mutant (unknown origin) assessed as remaining activity at 1 uM by Kinome scan method relative to control"}, "[24]": {"tested_on": "Receptor-type tyrosine-protein kinase FLT3 (Homo sapiens), P36888 [UNDEFINED MUTATION]", "assay": "Inhibition of FLT3 ITD mutant (unknown origin) assessed as remaining activity at 1 uM by Kinome scan method relative to control"}, "[25]": {"biological_target": "Dual specificity protein kinase CLK4 (Homo sapiens) (UniProt Q9HAZ1)", "assay": "Inhibition of CLK4 (unknown origin) assessed as remaining activity at 1 uM by Kinome scan method relative to control"}, "[26]": {"biological_target": "TRAF2 and NCK-interacting protein kinase (Homo sapiens) (UniProt Q9UKE5)", "assay": "Inhibition of TNIK (unknown origin) assessed as remaining activity at 1 uM by Kinome scan method relative to control"}, "[27]": {"biological_target": "Ribosomal protein S6 kinase alpha-1 (Homo sapiens) (UniProt Q15418)", "sequence (Q15418 whole entry, the tested form may be a part)": "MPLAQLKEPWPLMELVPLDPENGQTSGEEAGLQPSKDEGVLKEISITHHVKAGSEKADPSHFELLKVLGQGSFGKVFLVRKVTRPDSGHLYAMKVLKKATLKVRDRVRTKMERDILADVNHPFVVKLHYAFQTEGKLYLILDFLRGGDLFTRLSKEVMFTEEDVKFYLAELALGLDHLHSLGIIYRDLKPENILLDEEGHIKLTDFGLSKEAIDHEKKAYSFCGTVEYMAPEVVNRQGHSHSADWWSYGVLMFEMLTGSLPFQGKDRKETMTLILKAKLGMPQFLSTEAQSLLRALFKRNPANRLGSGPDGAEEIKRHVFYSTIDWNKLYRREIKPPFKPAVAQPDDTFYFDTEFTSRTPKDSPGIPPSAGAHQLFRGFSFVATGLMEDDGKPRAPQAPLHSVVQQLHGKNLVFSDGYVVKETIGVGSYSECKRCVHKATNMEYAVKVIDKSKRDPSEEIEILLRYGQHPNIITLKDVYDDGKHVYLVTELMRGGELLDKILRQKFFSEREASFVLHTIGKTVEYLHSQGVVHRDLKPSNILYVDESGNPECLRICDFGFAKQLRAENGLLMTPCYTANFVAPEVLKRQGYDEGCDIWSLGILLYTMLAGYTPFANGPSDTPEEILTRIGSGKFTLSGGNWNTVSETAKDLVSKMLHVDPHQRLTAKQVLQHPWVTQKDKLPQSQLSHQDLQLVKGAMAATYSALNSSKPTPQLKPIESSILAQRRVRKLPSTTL", "assay": "Inhibition of C-terminal kinase domain RSK1 (unknown origin) assessed as remaining activity at 1 uM by Kinome scan method relative to control"}, "[28]": {"biological_target": "RAC-gamma serine/threonine-protein kinase (Homo sapiens) (UniProt Q9Y243)", "assay": "Inhibition of AKT3 (unknown origin) assessed as remaining activity at 1 uM by Kinome scan method relative to control"}, "[29]": {"biological_target": "Serine/threonine-protein kinase SBK1 (Homo sapiens) (UniProt Q52WX2)", "assay": "Inhibition of SBK1 (unknown origin) assessed as remaining activity at 1 uM by Kinome scan method relative to control"}, "[30]": {"biological_target": "Serine/threonine-protein kinase MARK1 (Homo sapiens) (UniProt Q9P0L2)", "sequence (Q9P0L2 whole entry, looked up)": "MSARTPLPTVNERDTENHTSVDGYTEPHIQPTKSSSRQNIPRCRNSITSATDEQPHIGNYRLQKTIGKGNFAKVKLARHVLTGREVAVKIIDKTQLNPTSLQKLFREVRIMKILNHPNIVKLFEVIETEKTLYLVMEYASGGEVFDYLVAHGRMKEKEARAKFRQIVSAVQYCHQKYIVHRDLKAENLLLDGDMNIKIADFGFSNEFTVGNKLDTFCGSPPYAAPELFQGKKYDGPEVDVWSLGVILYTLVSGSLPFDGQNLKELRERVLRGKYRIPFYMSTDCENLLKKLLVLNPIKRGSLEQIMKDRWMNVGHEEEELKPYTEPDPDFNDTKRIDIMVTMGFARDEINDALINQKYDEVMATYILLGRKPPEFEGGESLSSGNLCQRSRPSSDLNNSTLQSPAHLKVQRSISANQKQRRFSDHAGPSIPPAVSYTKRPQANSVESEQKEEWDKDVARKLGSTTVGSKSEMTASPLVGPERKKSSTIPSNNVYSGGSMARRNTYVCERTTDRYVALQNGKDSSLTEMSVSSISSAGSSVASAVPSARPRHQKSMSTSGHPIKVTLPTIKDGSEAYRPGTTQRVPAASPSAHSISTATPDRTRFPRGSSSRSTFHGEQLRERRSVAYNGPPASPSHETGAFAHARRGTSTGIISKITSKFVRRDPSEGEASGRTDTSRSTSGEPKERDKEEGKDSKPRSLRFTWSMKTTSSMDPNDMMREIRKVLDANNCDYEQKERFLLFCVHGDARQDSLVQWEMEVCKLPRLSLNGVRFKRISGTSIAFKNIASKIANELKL", "assay": "Inhibition of MARK1 (unknown origin) assessed as remaining activity at 1 uM by Kinome scan method relative to control"}, "[31]": {"biological_target": "Proto-oncogene tyrosine-protein kinase receptor Ret (Homo sapiens) (UniProt P07949)", "assay": "Inhibition of RET (unknown origin) assessed as remaining activity at 1 uM by Kinome scan method relative to control"}, "RV-1": {"tested_on": "RV-1", "assay": "Antiproliferative activity against human RV-1 cells assessed as reduction in cell viability at 500 to 2500 nM incubated for 5 days in presence of WYE125132 by CellTiter-Glo assay", "format": "functional, cell-based", "conditions": "dose 500-2500 nM, time 5.0 day"}}, "note": "Active and inactive are the calls of the source. The rule behind the calls is not given here."}
{"smiles": "C=CC(=O)Nc1cc(-n2c(=O)ccc3cnc4ccc(-c5ccc(NS(C)(=O)=O)cc5)cc4c32)ccc1C", "values": [{"measurement": "Activity", "setting": "[1]", "result": 96, "unit": "%"}, {"measurement": "Activity", "setting": "[2]", "result": 93, "unit": "%"}, {"measurement": "Activity", "setting": "[3]", "result": 98, "unit": "%"}, {"measurement": "Activity", "setting": "[4]", "result": 92, "unit": "%"}, {"measurement": "Activity", "setting": "[5]", "result": 91, "unit": "%"}, {"measurement": "Activity", "setting": "[6]", "result": 86, "unit": "%"}, {"measurement": "inhibition", "setting": "[7]", "result": "inactive"}, {"measurement": "Activity", "setting": "[8]", "result": 98, "unit": "%"}, {"measurement": "Activity", "setting": "[9]", "result": 69, "unit": "%"}, {"measurement": "Activity", "setting": "[10]", "result": 80, "unit": "%"}, {"measurement": "Activity", "setting": "[11]", "result": 85, "unit": "%"}, {"measurement": "Activity", "setting": "[12]", "result": 84, "unit": "%"}, {"measurement": "Activity", "setting": "[13]", "result": 75, "unit": "%"}, {"measurement": "IC50", "setting": "BaF3 [14]", "result": "> 10000", "unit": "nM"}, {"measurement": "Activity", "setting": "[15]", "result": 87, "unit": "%"}, {"measurement": "IC50", "setting": "BaF3 [16]", "result": 569, "unit": "nM"}, {"measurement": "GI50", "setting": "BaF3 [16]; time 2-5 day", "result": 25, "unit": "nM"}, {"measurement": "Activity", "setting": "[17]", "result": 92, "unit": "%"}, {"measurement": "inhibition", "setting": "[18]", "result": "inactive"}, {"measurement": "Activity", "setting": "[19]", "result": 56, "unit": "%"}, {"measurement": "Activity", "setting": "[20]", "result": 93, "unit": "%"}, {"measurement": "Activity", "setting": "[21]", "result": 92, "unit": "%"}, {"measurement": "Activity", "setting": "[22]", "result": 92, "unit": "%"}, {"measurement": "Activity", "setting": "[23]", "result": 99, "unit": "%"}, {"measurement": "Activity", "setting": "[24]", "result": 99, "unit": "%"}, {"measurement": "Activity", "setting": "[25]", "result": 99, "unit": "%"}, {"measurement": "Activity", "setting": "[26]", "result": 96, "unit": "%"}, {"measurement": "Activity", "setting": "[27]", "result": 91, "unit": "%"}, {"measurement": "Activity", "setting": "[28]", "result": 75, "unit": "%"}, {"measurement": "Activity", "setting": "[29]", "result": 4.6, "unit": "%"}, {"measurement": "Activity", "setting": "[30]", "result": 97, "unit": "%"}, {"measurement": "Activity", "setting": "[31]", "result": 88, "unit": "%"}, {"measurement": "Activity", "setting": "RV-1", "result": "Active"}]}
